Drawing on patent publication US9346795B2, “Substituted sulfonamides useful as antiapoptotic Bcl inhibitors” (Bristol-Myers Squibb Company, priority 2011, dated 2016), this text covers IC50 for 18 compounds.

Assay [1] has as its target Bcl-xL (Homo sapiens (Human), UniProt Q07817). Kind of assay: Bcl-xL/Bim Fluorescence Resonance Energy Transfer Assay (FRET). In kind it is binding. The procedure:
Bcl-xL/Bim Fluorescence Resonance Energy Transfer Assay (FRET) The assays were performed in black flat-bottom 384-well plates. The final assay volume was 55 μl prepared from additions of Biotin-Bcl-xL (Bcl-xL: GENBANK® Accession No. […] The reaction was incubated at room temperature for 60 minutes. After 60 minutes, 5 μL of Streptavidin-Terbium FRET detection reagent (Perkin Elmer) was added to the reaction mixture and incubated at room temperature in the dark for 30 mins. […] Compounds were dissolved at 10 mM in dimethylsulfoxide (DMSO) and evaluated at eleven concentrations. IC50 values were derived by non-linear regression analysis.

Assay [2] addresses Bcl-2 (Homo sapiens (Human), UniProt P10415). As to the kind of experiment: Bcl-2/Bim Fluorescence Polarization Assay (FPA). The format is binding. The procedure: Bcl-2/Bim Fluorescence Polarization Assay (FPA)
The assays were performed in black flat-bottom 384-well plates. […] The reaction was incubated at room temperature for 60 minutes and fluorescence polarization of the reaction was detected on the LJL Plate Reader. Inhibition data were calculated from mP values generated by the no protein control reactions for 100% inhibition and vehicle-only reactions for 0% inhibition. The final concentrations of reagents in the assay were 4.9 nM BCL-2, 5 nM fluoresceinated 18-mer BIM peptide and 1% DMSO. […] Compounds were dissolved at 10 mM in dimethylsulfoxide (DMSO) and evaluated at eleven concentrations. IC50 values were derived by non-linear regression analysis.
In general terms: Polarisation of emitted light reports the rotation of a fluorescent probe.

Chain of Bcl-xL (Q07817 whole entry): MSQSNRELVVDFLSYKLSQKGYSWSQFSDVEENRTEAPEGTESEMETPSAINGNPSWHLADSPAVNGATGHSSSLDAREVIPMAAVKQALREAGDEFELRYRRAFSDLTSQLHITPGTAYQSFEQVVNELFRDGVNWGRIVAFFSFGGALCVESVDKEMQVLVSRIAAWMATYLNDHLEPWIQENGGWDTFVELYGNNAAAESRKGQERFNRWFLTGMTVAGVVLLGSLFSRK
Chain of Bcl-2 (P10415 whole entry): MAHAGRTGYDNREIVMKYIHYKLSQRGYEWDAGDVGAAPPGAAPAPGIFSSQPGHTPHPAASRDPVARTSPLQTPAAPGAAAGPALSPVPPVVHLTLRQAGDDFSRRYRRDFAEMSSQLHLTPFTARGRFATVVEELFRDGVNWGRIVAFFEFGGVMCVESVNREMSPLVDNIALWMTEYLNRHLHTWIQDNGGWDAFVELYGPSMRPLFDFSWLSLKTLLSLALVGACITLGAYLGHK

In the case of `CCCCN(CCCC)C(=O)c1nn(-c2ccc(C(=O)NS(=O)(=O)c3ccc4c(c3)CCN4CCSc3ccccc3)cc2C(=O)N2CCc3ccccc3C2)c(C)c1Cl` [Example 67, N,N-dibutyl-4-chloro-5-methyl-1-(4-(1-(2-(phenylthio)ethyl)indolin-5-ylsulfonylcarbamoyl)-2-(1,2,3,4-tetrahydroisoquinoline-2-carbonyl)phenyl)-1H-pyrazole-3-carboxamide], the IC50 in assay [1] was 60 nM; in assay [2] it was 50 nM.
As to `CCCCN(CCCC)C(=O)c1nn(-c2ccc(C(=O)NS(=O)(=O)c3ccc4c(ccn4Cc4ccc(Cl)c(Cl)c4)c3)cc2C(=O)N2CCc3ccccc3C2)c(C)c1Cl` [Example 68, N,N-dibutyl-4-chloro-1-(4-(1-(3,4-dichlorobenzyl)-1H-indol-5-ylsulfonylcarbamoyl)-2-(1,2,3,4-tetrahydroisoquinoline-2-carbonyl)phenyl)-5-methyl-1H-pyrazole-3-carboxamide], the IC50 stood at 110 nM in assay [1] and 50 nM in assay [2].
On the same counts, the results for `CCCCN(CCCC)C(=O)c1nn(-c2ccc(C(=O)NS(=O)(=O)c3ccc4c(c3)CCN4C(=O)N3CCOCC3)cc2C(=O)N2CCc3ccccc3C2)c(C)c1Cl` [Example 74, N,N-dibutyl-4-chloro-5-methyl-1-(4-(1-(morpholine-4-carbonyl)indolin-5-ylsulfonylcarbamoyl)-2-(1,2,3,4-tetrahydroisoquinoline-2-carbonyl)phenyl)-1H-pyrazole-3-carboxamide] are 60 nM and 340 nM.
For `CCCCN(CCCC)C(=O)c1nn(-c2ccc(C(=O)NS(=O)(=O)c3ccc4c(ccn4CCCN4CCOCC4)c3)cc2C(=O)N2CCc3ccccc3C2)c(C)c1Cl` [Example 82, N,N-dibutyl-4-chloro-5-methyl-1-(4-(1-(3-morpholinopropyl)-1H-indol-5-ylsulfonylcarbamoyl)-2-(1,2,3,4-tetrahydroisoquinoline-2-carbonyl)phenyl)-1H-pyrazole-3-carboxamide], in that order: 30 nM and 390 nM.
On the same counts, the results for `CCCCN(CCCC)C(=O)c1nn(-c2ccc(C(=O)NS(=O)(=O)c3ccc4c(c3)c(Cl)cn4CC)cc2C(=O)N2CCc3ccccc3C2)c(C)c1Cl` [Example 83, N,N-dibutyl-4-chloro-1-(4-(3-chloro-1-ethyl-1H-indol-5-ylsulfonylcarbamoyl)-2-(1,2,3,4-tetrahydroisoquinoline-2-carbonyl)phenyl)-5-methyl-1H-pyrazole-3-carboxamide] are 40 nM and 20 nM.
Turning to `CCCCN(CCCC)C(=O)c1nn(-c2ccc(C(=O)NS(=O)(=O)c3ccc4c(c3)c(I)cn4CC)cc2C(=O)N2CCc3ccccc3C2)c(C)c1Cl` [Example 84, N,N-dibutyl-4-chloro-1-(4-(1-ethyl-3-iodo-1H-indol-5-ylsulfonylcarbamoyl)-2-(1,2,3,4-tetrahydroisoquinoline-2-carbonyl)phenyl)-5-methyl-1H-pyrazole-3-carboxamide], the IC50 in assay [1] was 80 nM; in assay [2], 7.69 nM.
On the same counts, the results for `CCCCN(CCCC)C(=O)c1nn(-c2ccc(C(=O)NS(=O)(=O)c3cc(Br)c4c(c3)c(Br)cn4CC)cc2C(=O)N2CCc3ccccc3C2)c(C)c1Cl` [Example 85, N,N-dibutyl-4-chloro-1-(4-(3,7-dibromo-1-ethyl-1H-indol-5-ylsulfonylcarbamoyl)-2-(1,2,3,4-tetrahydroisoquinoline-2-carbonyl)phenyl)-5-methyl-1H-pyrazole-3-carboxamide] are 20 nM and 4.19 nM.
For the compound `CCCCN(CCCC)C(=O)c1nn(-c2ccc(C(=O)NS(=O)(=O)c3ccc4ccccc4c3)cc2C(=O)N2Cc3ccccc3C[C@H]2CN)c(C)c1Cl` [Example 92, 1-(2-((S)-3-(Aminomethyl)-1,2,3,4-tetrahydroisoquinoline-2-carbonyl)-4-(naphthalen-2-ylsulfonylcarbamoyl)phenyl)-N,N-dibutyl-4-chloro-5-methyl-1H-pyrazole-3-carboxamide], the half-maximal inhibitory concentration (IC50) in assay [1] is 10 nM; in assay [2] it was 8.41 nM.
As for `CCCCN(CCCC)C(=O)c1nn(-c2ccc(C(=O)NS(=O)(=O)c3ccc4ccccc4c3)cc2C(=O)N2Cc3ccccc3C[C@@H]2C(=O)O)c(C)c1Cl` [Example 93, (3R)-2-(2-(4-Chloro-3-(dibutylcarbamoyl)-5-methyl-1H-pyrazol-1-yl)-5-(naphthalen-2-ylsulfonylcarbamoyl)benzoyl)-1,2,3,4-tetrahydroisoquinoline-3-carboxylic acid], the results for the IC50 in assay [1] and in assay [2] were 200 nM and 1650 nM, respectively.
For `CCCCN(CCCC)C(=O)c1nn(-c2ccc(C(=O)NS(=O)(=O)c3ccc4ccccc4c3)cc2C(=O)N2COc3ccccc3C2)c(C)c1Cl` [Example 96, N,N-Dibutyl-4-chloro-1-(2-(3,4-dihydro-2H-benzo[e][1,3]oxazine-3-carbonyl)-4-(naphthalen-2-ylsulfonylcarbamoyl)phenyl)-5-methyl-1H-pyrazole-3-carboxamide], the figures for the IC50 in assay [1] and in assay [2] were 60 nM and 120 nM, respectively.
On the same counts, the results for `CCCCN(CCCC)C(=O)c1nn(-c2ccc(C(=O)NS(=O)(=O)c3ccc4ccccc4c3)cc2C(=O)N2CCc3ccc(C(=O)O)cc3C2)c(C)c1Cl` [Example 100, 2-(2-(4-Chloro-3-(dibutylcarbamoyl)-5-methyl-1H-pyrazol-1-yl)-5-(naphthalen-2-ylsulfonylcarbamoyl)benzoyl)-1,2,3,4-tetrahydroisoquinoline-7-carboxylic acid] are 3510 nM and 4710 nM.
For `CCCCN(CCCC)C(=O)c1nn(-c2ccc(C(=O)NS(=O)(=O)c3ccc4ccccc4c3)cc2C(=O)N2Cc3ccccc3S(=O)(=O)C2)c(C)c1Cl` [Example 104, N,N-Dibutyl-4-chloro-1-(2-(1,1-dioxido-3,4-dihydro-2H-benzo[e][1,3]thiazine-3-carbonyl)-4-(naphthalen-2-ylsulfonylcarbamoyl)phenyl)-5-methyl-1H-pyrazole-3-carboxamide], in that order: 130 nM and 440 nM.
In the case of `CCCCN(CCCC)C(=O)c1nn(-c2ccc(C(=O)NS(=O)(=O)c3ccc4ccccc4c3)cc2C(=O)N2Cc3ccccc3C[C@H]2COCCCOC)c(C)c1Cl` [Example 105, N,N-Dibutyl-4-chloro-1-(2-((S)-3-((3-methoxypropoxy)methyl)-1,2,3,4-tetrahydroisoquinoline-2-carbonyl)-4-(naphthalen-2-ylsulfonylcarbamoyl)phenyl)-5-methyl-1H-pyrazole-3-carboxamide], the IC50 in assay [1] was 30 nM; in assay [2] it was 20 nM.
Turning to `CCCCN(CCCC)C(=O)c1nn(-c2ccc(C(=O)NS(=O)(=O)c3ccc4ccccc4c3)cc2C(=O)N2Cc3ccccc3C[C@H]2CN2CCN(CCO)CC2)c(C)c1Cl` [Example 115, N,N-dibutyl-4-chloro-1-(2-((S)-3-((4-(2-hydroxyethyl)piperazin-1-yl)methyl)-1,2,3,4-tetrahydroisoquinoline-2-carbonyl)-4-(naphthalen-2-ylsulfonylcarbamoyl)phenyl)-5-methyl-1H-pyrazole-3-carboxamide], the IC50 is 20 nM in assay [1] and 90 nM in assay [2].
On the same counts, the results for `CCCCN(CCCC)C(=O)c1nn(-c2ccc(C(=O)NS(=O)(=O)c3ccc4ccccc4c3)cc2C(=O)N2Cc3ccccc3C[C@H]2COCCO)c(C)c1Cl` [Example 119, N,N-Dibutyl-4-chloro-1-(2-((S)-3-((2-hydroxyethoxy)methyl)-1,2,3,4-tetrahydroisoquinoline-2-carbonyl)-4-(naphthalen-2-ylsulfonylcarbamoyl)phenyl)-5-methyl-1H-pyrazole-3-carboxamide] are 10 nM and 50 nM.
For `CCCCN(CCc1ccc(Cl)c(Cl)c1)C(=O)c1nn(-c2ccc(C(=O)NS(=O)(=O)c3ccc4ccccc4c3)cc2C(=O)N2CCc3ccccc3C2)c(C)c1Cl` [Example 127, N-butyl-4-chloro-N-(3,4-dichlorophenethyl)-5-methyl-1-(4-(naphthalen-2-ylsulfonylcarbamoyl)-2-(1,2,3,4-tetrahydroisoquinoline-2-carbonyl)phenyl)-1H-pyrazole-3-carboxamide], the IC50 in assay [1] turned out to be 220 nM; in assay [2], 30 nM.
`CCCCN(CCCC(F)(F)F)C(=O)c1nn(-c2ccc(C(=O)NS(=O)(=O)c3ccc4ccccc4c3)cc2C(=O)N2CCc3ccccc3C2)c(C)c1Cl` [Example 128, N-butyl-4-chloro-5-methyl-1-(4-(naphthalen-2-ylsulfonylcarbamoyl)-2-(1,2,3,4-tetrahydroisoquinoline-2-carbonyl)phenyl)-N-(4,4,4-trifluorobutyl)-1H-pyrazole-3-carboxamide]: the IC50 stood at 80 nM in assay [1] and 110 nM in assay [2].
For `Cc1c(Cl)c(C(=O)N(CCC(F)(F)F)CCC(F)(F)F)nn1-c1ccc(C(=O)NS(=O)(=O)c2ccc3ccccc3c2)cc1C(=O)N1CCc2ccccc2C1` [Example 130, 4-chloro-5-methyl-1-(4-(naphthalen-2-ylsulfonylcarbamoyl)-2-(1,2,3,4-tetrahydroisoquinoline-2-carbonyl)phenyl)-N,N-bis(3,3,3-trifluoropropyl)-1H-pyrazole-3-carboxamide], in that order: 30 nM and 80 nM.

In general, IC50 refers to the concentration that inhibits the measured activity by half. High values mean weaker potency in that assay, low ones greater potency in that assay.
